Measured values: US20260374766A1, “METHODS FOR TREATING CANCER” (Antares Therapeutics, Inc., priority 2022, published 2026)
Where a name gives a salt, the structure may show the parent alone. Read-outs that look alike come from different tables or passages of the source.

Key:
NUGC3 p53 Y220C = test: Cell Proliferation Assay (CellTiter-Glo, CTG), NUGC3 p53 Y220C; format: cell-based; conditions: Homo sapiens, NUGC-3, 120 h, 5 days
Method in brief: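 Tet-One inducible p53 Y220C or R273H constructs were stably introduced into NCI-H1299 by lentiviral transduction; NUGC3 was used as is. Cells (250-500 per well) were exposed to compound for 5 days, then CellTiter-Glo was added for 10 min at room temperature and IC50 was calculated from luminescence.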

H1299 p53 Y220C = test: Cell Proliferation Assay (CellTiter-Glo, CTG), H1299 p53 Y220C (NClH1299-inducible p53 Y220C); format: cell-based; conditions: Homo sapiens, NCI-H1299, 120 h, 5 days
Method in brief: (§1)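 Cells seeded at 250-500 per well and exposed to compound for 5 days. Viability read by CellTiter-Glo luminescence after 10 min at room temperature; IC50 calculated. H1299 lines carry Tet-One inducible p53 mutant constructs introduced by lentiviral transduction.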

H1299 p53 R273H = test: Cell Proliferation Assay (CellTiter-Glo, CTG), H1299 p53 R273H (NClH1299-inducible p53 R273H); format: cell-based; conditions: Homo sapiens, NCI-H1299, 120 h, 5 days
Method in brief: as §1

[1] = target: T1, p53 Y220C mutant protein (amino acid residues 94-293) (Homo sapiens, UniProt P04637, Y220C); test: Thermal Shift Assay (TSA), dTM; format: binding; conditions: for ΔTm at 100 µM: 100 uM compound, read-out: TSA P53 Y220C dTM (100 uM); for ΔTm at 10 µM: 10 uM compound
T1 construct: p53 Y220C mutant protein (amino acid residues 94-293)
Procedure: Thermal Shift Assay (TSA) Protocol
5 μM recombinant p53 Y220C mutant protein (amino acid residues 94-293) was incubated with 10 μM or 100 μM compound for 3 hours at 20 °C in buffer containing 20 mM HEPES, pH7.4, 100 mM NaCl, 0.01% Pluronic F-127, and 1% DMSO in the presence of 400-fold diluted Sypro Orange (ThermoFisher Scientific catalog number 4461146), on a 384-well PCR plate (Applied Biosystems catalog number 4483285). The volume was 5 μL/well. The sealed plate was then loaded onto a QuantStudio 7 Flex instrument for melting temperature (TM) measurement. The temperature was increased from 30 °C to […], at a rate of 0.03 °C/second. Data were fit into a Boltzmann two-state model to determine the TM.

p53 Y220C = p53 Y220C (Homo sapiens, UniProt P04637, Y220C); test: Luciferase Reporter Assay (Luc), p53 response element, NClH1299 cells with inducible p53 Y220C; format: cell-based; conditions: 6 hour; for AC50: read-out: Luc P53 Y220C AC50
Method in brief: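 Steps: seed 5,000 cells/well; induce mutant p53 with 0.5 ug/mL doxycycline for 24 h; treat with compound 6 h; add equal volume One-Glo, shake 5 min at room temperature; measure luciferase immediately.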

[2] = target: T1, p53 Y220C mutant protein (amino acid residues 94-293); test: Surface Plasmon Resonance (SPR) assay, Kd_kinetic; format: binding; conditions: SPR, p53 Y220C, read-out: SPR P53 Y220C KD kinetic
Method in brief: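 Surface plasmon resonance is run at 16 or 20 °C in 50 mM Tris pH 7.5 containing 100 mM NaCl, 1 mM DTT, 0.01% Brij35, 0.05% Tween-20 and 1% DMSO. Association and dissociation data are fitted to a 1:1 model.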

[3] = luciferase reporter, NClH1299 inducible p53 Y220C, 10 uM tool compound as positive control
[4] = luciferase reporter, NClH1299 inducible p53 Y220C
[5] = NClH1299-inducible p53 Y220C cells
[6] = AC50, NClH1299 cells with inducible p53 Y220C
[7] = Emax, NClH1299 cells with inducible p53 Y220C, 10 uM tool compound as positive control
[8] = NClH1299-inducible p53 R273H cells

Row | SMILES | IC50 (H1299 p53 Y220C; CellTiter-Glo, H1299 p53 Y220C) [nM] | IC50 (H1299 p53 R273H; CellTiter-Glo, H1299 p53 R273H) [nM] | ΔTm at 100 µM ([1]; thermal shift) [°C] | Emax (p53 Y220C; [3]) [%] | AC50 (p53 Y220C; [4]) [nM] | Kd [2] [nM] | IC50 (H1299 p53 Y220C; [5]) [nM] | AC50 (p53 Y220C; [6]) [nM] | Emax (p53 Y220C; [7]) [%] | IC50 (H1299 p53 R273H; [8]) [nM] | IC50 (NUGC3 p53 Y220C; NUGC3 cells) [nM] | also measured
1 | COc1cc(S(C)(=O)=O)ccc1NCC#Cc1nc2c(NC3CCN(C(C)=O)CC3)cccn2c1CC(F)(F)F [Example 10, 1-{4-[(2-{3-[(4-methanesulfonyl-2-methoxyphenyl)amino]prop-1-yn-1-yl}-3-(2,2,2-trifluoroethyl)imidazo[1,2-a]pyridin-8-yl)amino]piperidin-1-yl}ethanone] | 1500 to 3000 | ≥ 10000 | 5 to 10 | 80 to 90 | > 3000 | – | – | – | – | – | – | IC50 (NUGC3 p53 Y220C; CellTiter-Glo, NUGC3 p53 Y220C): > 3000 nM
2 | C=C(C)C(=O)Nc1cc(NC2CCN(C)CC2)c2nc(C#CCNc3ccc(C(=O)NC)cc3OC)c(CC(F)(F)F)n2c1 [Example 13, 3-methoxy-N-methyl-4-[(3-{8-[(1-methylpiperidin-4-yl)amino]-6-(2-methylprop-2-enamido)-3-(2,2,2-trifluoroethyl)imidazo[1,2-a]pyridin-2-yl}prop-2-yn-1-yl)amino]benzamide, formic acid salt] | > 3000 | ≥ 10000 | 1 to 5 | < 70 | – | – | – | – | – | – | – | IC50 (NUGC3 p53 Y220C; CellTiter-Glo, NUGC3 p53 Y220C): > 3000 nM
3 | CC#Cc1nc2c(N[C@@H]3CCN(C)C[C@@H]3F)cccn2c1CC(F)(F)F [Example 18, (3S,4R)-3-fluoro-1-methyl-N-[2-(prop-1-yn-1-yl)-3-(2,2,2-trifluoroethyl)imidazo[1,2-a]pyridin-8-yl]piperidin-4-amine] | > 3000 | ≥ 10000 | 5 to 10 | < 70 | > 3000 | – | – | – | – | – | – | Kd ([2]; kinetic KD): 10 to 100 nM
4 | CC#Cc1nc2c(NC3CCN(C)CC3)cccn2c1CC(F)(F)F [Example 19, 1-methyl-N-[2-(prop-1-yn-1-yl)-3-(2,2,2-trifluoroethyl)imidazo[1,2-a]pyridin-8-yl]piperidin-4-amine] | > 3000 | ≥ 10000 | 5 to 10 | < 70 | > 3000 | – | – | – | – | – | – | Kd ([2]; kinetic KD): 100 to 1000 nM
5 | C=Cc1c(C#CC)nc2c(NC3CCN(C)CC3)cccn12 [Example 21, N-[3-ethenyl-2-(prop-1-yn-1-yl)imidazo[1,2-a]pyridin-8-yl]-1-methylpiperidin-4-amine] | – | – | 1 to 5 | – | – | – | – | – | – | – | – | –
6 | C=CC(=O)Nc1c(C#CCNc2ccc(C(=O)NC)cc2OC)nc2c(N[C@@H]3CCN(C)C[C@@H]3F)cccn12 [Example 23, 4-{[3-(8-{[(3S,4R)-3-fluoro-1-methylpiperidin-4-yl]amino}-3-(prop-2-enamido)imidazo[1,2-a]pyridin-2-yl)prop-2-yn-1-yl]amino}-3-methoxy-N-methylbenzamide] | > 3000 | ≥ 10000 | 5 to 10 | < 70 | > 3000 | – | – | – | – | – | – | IC50 (NUGC3 p53 Y220C; CellTiter-Glo, NUGC3 p53 Y220C): > 3000 nM
7 | C=CC(=O)N(C)c1c(C#CCNc2ccc(C(=O)NC)cc2OC)nc2c(N[C@@H]3CCN(C)C[C@@H]3F)cccn12 [Example 26, 4-{[3-(8-{[(3S,4R)-3-fluoro-1-methylpiperidin-4-yl]amino}-3-(N-methylprop-2-enamido)imidazo[1,2-a]pyridine-2-yl)prop-2-yn-1-yl]amino}-3-methoxy-N-methylbenzamide] | > 3000 | ≥ 10000 | 5 to 10 | < 70 | > 3000 | – | – | – | – | – | – | IC50 (NUGC3 p53 Y220C; CellTiter-Glo, NUGC3 p53 Y220C): > 3000 nM
8 | COc1cc(S(C)(=O)=O)ccc1NCC#Cc1nc2c(NC3CCN(C)CC3)cc(NC(=O)OC(C)(C)C)cn2c1CC(F)(F)F [Example 31, tert-butyl N-(2-{3-[(4-methanesulfonyl-2-methoxyphenyl)amino]prop-1-yn-1-yl}-8-[(1-methylpiperidin-4-yl)amino]-3-(2,2,2-trifluoroethyl)imidazo[1,2-a]pyridin-6-yl) carbamate] | – | – | 1 to 5 | – | – | – | – | – | – | – | – | –
9 | CNC(=O)c1ccc(NCC#Cc2nc3c(N[C@@H]4CCN(CC(C)(C)O)C[C@@H]4F)cccn3c2SC(F)(F)F)c(OC)c1 [Example 164] | < 750 | – | – | 80 to 90 | < 750 | – | – | – | – | – | – | Kd ([2]; kinetic KD): < 10 nM; ΔTm at 10 µM ([1]; thermal shift, read-out: TSA P53 Y220C dTM (10 uM)): ≥ 10 °C
10 | CNC(=O)c1cnc(OC)c(NCC#Cc2nc3c(N[C@@H]4C[C@H]5CC[C@@H]([C@@H]4F)N5C)cccn3c2SC(F)(F)F)c1 [Example 265] | – | – | – | – | – | < 10 | – | – | – | – | – | IC50 (H1299 p53 Y220C; NClH1299-inducible p53 Y220C cells, CellTiter-Glo): < 750 nM; ΔTm at 10 µM ([1]; p53 Y220C, read-out: TSA P53 Y220C dTM): ≥ 10 °C; AC50 (p53 Y220C; AC50, luciferase reporter, NClH1299 inducible p53 Y220C): < 750 nM; Emax (p53 Y220C; Emax, luciferase reporter, NClH1299 inducible p53 Y220C): > 90%
11 | [2H]C([2H])([2H])N1CC[C@@H](Nc2cccn3c(SC(F)(F)F)c(C#CCNc4ccc(C(=O)NC)cc4OC)nc23)[C@@H](F)C1 [Example 476, 4-((3-(8-(((3S,4R)-3-fluoro-1-(methyl-d3)piperidin-4-yl)amino)-3-((trifluoromethyl)thio)imidazo[1,2-a]pyridin-2-yl)prop-2-yn-1-yl)amino)-3-methoxy-N-methylbenzamide] | – | – | – | – | – | < 10 | < 750 | < 750 | > 90 | – | – | ΔTm at 10 µM ([1]; read-out: TSA P53 Y220C dTM): ≥ 10 °C
12 | CNC(=O)c1ccc(O[C@H]2C[C@H](O)C2)c(NCC#Cc2cc3c(N[C@@H]4CCN(C)C[C@@H]4F)cccn3c2SC(F)(F)F)c1 [Example 497, 3-{[3-(8-{[(3S,4R)-3-fluoro-1-methylpiperidin-4-yl]amino}-3-[(trifluoromethyl)sulfanyl]indolizin-2-yl)prop-2-yn-1-yl]amino}-N-methyl-4-[(1r,3r)-3-hydroxycyclobutoxy]benzamide] | – | – | – | – | – | < 10 | < 750 | < 750 | > 90 | ≥ 10000 | < 750 | –

Second part, led by results:

Row | IC50 (H1299 p53 Y220C; CellTiter-Glo, H1299 p53 Y220C) [nM] | IC50 (H1299 p53 R273H; CellTiter-Glo, H1299 p53 R273H) [nM] | ΔTm at 100 µM ([1]; thermal shift) [°C] | Emax (p53 Y220C; [3]) [%] | AC50 (p53 Y220C; [4]) [nM] | Kd [2] [nM] | IC50 (H1299 p53 Y220C; [5]) [nM] | AC50 (p53 Y220C; [6]) [nM] | Emax (p53 Y220C; [7]) [%] | IC50 (H1299 p53 R273H; [8]) [nM] | SMILES | IC50 (NUGC3 p53 Y220C; NUGC3 cells) [nM] | also measured
13 | – | – | – | – | – | < 10 | < 750 | < 750 | > 90 | ≥ 10000 | CNC(=O)c1cnc(OC)c(NCC#Cc2cc3c(N[C@@H]4CCNC[C@@H]4F)cccn3c2SC(F)(F)F)c1 [Example 498] | < 750 | –
14 | – | – | – | – | – | < 10 | < 750 | < 750 | > 90 | 5000 to 8000 | CNC(=O)c1ccc(OC2COC2)c(NCC#Cc2cc3c(N[C@@H]4CCN(C)C[C@@H]4F)cccn3c2SC(F)(F)F)c1 [Example 499] | < 750 | –
15 | – | – | – | – | – | < 10 | < 750 | < 750 | > 90 | ≥ 10000 | CNC(=O)c1ccc(NCC#Cc2cc3c(N[C@@H]4CCN(C)C[C@@H]4F)cccn3c2SC(F)(F)F)c(F)c1 [Example 502, 3-fluoro-4-{[3-(8-{[(3S,4R)-3-fluoro-1-methylpiperidin-4-yl]amino}-3-[(trifluoromethyl)sulfanyl]indolizin-2-yl)prop-2-yn-1-yl]amino}-N-methylbenzamide] | < 750 | –
16 | – | – | – | – | – | < 10 | < 750 | < 750 | > 90 | < 5000 | CNC(=O)c1ccc(NCC#Cc2cc3c(N[C@@H]4CCN(C5COC5)C[C@@H]4F)cccn3c2SC(F)(F)F)c(OC)c1 [Example 504, 4-{[3-(8-{[(3S,4R)-3-fluoro-1-(oxetan-3-yl)piperidin-4-yl]amino}-3-[(trifluoromethyl)sulfanyl]indolizin-2-yl)prop-2-yn-1-yl]amino}-3-methoxy-N-methylbenzamide] | < 750 | –
17 | – | – | – | – | – | < 10 | < 750 | < 750 | > 90 | 8000 to 10000 | CNC(=O)c1ccc(C(=O)NC)c(NCC#Cc2cc3c(N[C@@H]4CCN(C)C[C@@H]4F)cccn3c2SC(F)(F)F)c1 [Example 508] | < 750 | –
